Source: patent US20230089557A1, “METHODS OF TREATING DLBCL USING BTK INHIBITORS AND COMBINATIONS THEREOF” (BEIGENE SWITZERLAND GMBH, priority 2020, published 2023)

How the values were obtained:
[1] = test system: R/R non-GCB DLBCL; test: Compound 1 monotherapy in patients with R/R non-GCB DLBCL; assay type: in vivo, human; conditions: for unadjusted ORR: non-GCB DLBCL
Protocol: A total of 121 patients with R/R non-GCB DLBCL were recruited in four Compound 1 treatment studies that were conducted at a similar time period. Two of the four studies were Compound 1 monotherapy (n=79) and two were Compound 1 combined with an anti-CD20 antibody therapy (n=42). Similar inclusion and exclusion criteria and response evaluation criteria were used across all studies. Fifty-six non-GCB patients were further subtyped by gene expression profiling (GEP) using the HTG EdgeSeq DLBCL Cell of Origin Assay. The expression of approximately 90 lymphoma-associated genes from the HTG GEP assay were analyzed by R package limma for correlation with response to Compound 1 treatment. Seventy-seven patient samples were tested by next-generation sequencing (NGS) with a panel of genes. Chi-square test was used to evaluate the correlation between mutations and the objective response rate (ORR).
Monotherapy schedule 1: Compound 1 was administered orally every day at 160 mg twice daily (BID) in 28-day cycles in patients with R/R non-GCB DLBCL.
Monotherapy schedule 2: Compound 1 was administered orally every day in each cycle at 160 mg BID in 28-day cycles in patients with R/R non-GCB DLBCL.
79 patients with non-GCB DLBCL were subjected to Compound 1 monotherapies (Monotherapy Schedule 1 or 2).

[2] = test system: Non-GCB DLBCL PDX models; test: Compound 1 efficacy (TGI) in non-GCB DLBCL PDX models by CD79B / CD79B ITAM mutation; assay type: in vivo, mice; conditions: p.o. 7.5 mg/kg BID
Description: DLBCL patient-derived xenografted (PDX) models were established in immunodeficient NCG (NOD-Prkdcem26Cd52Il2rgem26Cd22/NjuCrl) mice. These models were classified into GCB and non-GCB subgroups based on immunohistochemistry (IHC) staining using Hans algorithm. Non-GCB DLBCL PDX models were classified into CD79B mutant versus CD79B wildtype groups; or CD79B ITAM domain mutant (amino acid 193-210) versus CD79B ITAM domain wildtype groups. For efficacy studies, tumor tissues were inoculated subcutaneously into NCG mice. When tumors reached 100˜200 mm^3, mice were randomized into each group with 7˜10 mice/group based on tumor volume. Compound 1 was formulated with 0.5% methyl cellulose as vehicle and treatment was started on the day of randomized grouping. Compound 1 was administrated p.o., 7.5 mg/(kg body weight), BID. Tumor volumes were measured twice weekly in two dimensions using a caliper, and the volume were expressed in mm^3 using the formula:
V=0.5(a×b^2) where a and b are the long and short diameters of the tumor, respectively.
Tumor growth inhibition (TGI) was calculated using the following formula:
% TGI=100×[1−(treatmentvt−treatmentv0)/(vehiclevt−Vehiclev0)]
Treatmentvt=tumor volume of treatment group at time t.
treatmentv0=tumor volume of treatment group at time of treatment started.
Vehiclevt=tumor volume of vehicle group at time t.
Vehiclev0=tumor volume of vehicle group at time of treatment started.
P value was calculated using two tails t test.

[3] = monotherapy 160 BID Schedule 1, ABC Subtype of DLBCL Patients
[4] = monotherapy 160 BID Schedule 1, CD79B ITAM_Mut
[5] = monotherapy 160 BID Schedule 1, CD79B ITAM_WT
[6] = monotherapy 160 BID Schedule 1, CD79B_Mut
[7] = monotherapy 160 BID Schedule 1, CD79B_WT
[8] = monotherapy 160 BID Schedule 1, MYD88_L265P
[9] = monotherapy 160 BID Schedule 1, MYD88_WT
[10] = monotherapy 160 BID Schedule 1, NOTCH1_Mut
[11] = monotherapy 160 BID Schedule 1, NOTCH1_WT
[12] = monotherapy 160 BID Schedule 1, Non-GCB DLBCL Patients
[13] = monotherapy 160 BID Schedule 1, Non-GCB DLBCL Patients with Sequence Available
[14] = monotherapy 160 BID Schedule 1, Patients with Sequence Available
[15] = monotherapy 160 BID Schedule 2, ABC Subtype of DLBCL Patients
[16] = monotherapy 160 BID Schedule 2, CD79B ITAM_Mut
[17] = monotherapy 160 BID Schedule 2, CD79B ITAM_WT
[18] = monotherapy 160 BID Schedule 2, CD79B_Mut
[19] = monotherapy 160 BID Schedule 2, CD79B_WT
[20] = monotherapy 160 BID Schedule 2, MYD88_L265P
[21] = monotherapy 160 BID Schedule 2, MYD88_L265P/CD79B_Mut
[22] = monotherapy 160 BID Schedule 2, MYD88_WT
[23] = monotherapy 160 BID Schedule 2, NOTCH1_Mut
[24] = monotherapy 160 BID Schedule 2, NOTCH1_WT
[25] = monotherapy 160 BID Schedule 2, Non-GCB DLBCL Patients
[26] = monotherapy 160 BID Schedule 2, Non-GCB DLBCL Patients with Sequence Available
[27] = monotherapy 160 BID Schedule 2, Other (not MYD88_L265P/CD79B_Mut)
[28] = monotherapy 160 BID Schedule 2, Patients with Sequence Available
[29] = monotherapy Total (N = 79), ABC Subtype of DLBCL Patients
[30] = monotherapy Total (N = 79), CD79B ITAM_Mut
[31] = monotherapy Total (N = 79), CD79B ITAM_WT
[32] = monotherapy Total (N = 79), CD79B_Mut
[33] = monotherapy Total (N = 79), CD79B_WT
[34] = monotherapy Total (N = 79), MYD88_L265P
[35] = monotherapy Total (N = 79), MYD88_L265P/CD79B_Mut
[36] = monotherapy Total (N = 79), MYD88_WT
[37] = monotherapy Total (N = 79), NOTCH1_Mut
[38] = monotherapy Total (N = 79), NOTCH1_WT
[39] = monotherapy Total (N = 79), Non-GCB DLBCL Patients
[40] = monotherapy Total (N = 79), Non-GCB DLBCL Patients with Sequence Available
[41] = monotherapy Total (N = 79), Other (not MYD88_L265P/CD79B_Mut)
[42] = monotherapy Total (N = 79), Patients with Sequence Available

## C=CC(=O)N1CCC([C@@H]2CCNc3c(C(N)=O)c(-c4ccc(Oc5ccccc5)cc4)nn32)CC1 [Compound 1, (S)-7-(1-acryloylpiperidin-4-yl)-2-(4-phenoxyphenyl)-4,5,6,7-tetra-hydropyrazolo[1,5-a]pyrimidine-3-carboxamide]
[1]; GEP-confirmed activated B-cell DLBCL, first of the two monotherapies (Schedule 1)
  ORR: 53.8%
[1]; GEP-confirmed activated B-cell DLBCL, second of the two monotherapies (Schedule 2)
  ORR: 36%
[1]; [3]
  ORR: 53.8
  Response/Patient: 7/13
[1]; [4]
  ORR: 100.0
  Response/Patient: 2/2
[1]; monotherapy 160 BID Schedule 1, CD79B ITAM_Mut vs CD79B ITAM_WT
  Difference in ORR (95% CI): 50.0
[1]; [5]
  ORR: 50.0
  Response/Patient: 4/8
[1]; [6]
  ORR: 75.0
  Response/Patient: 3/4
[1]; monotherapy 160 BID Schedule 1, CD79B_Mut vs CD79B_WT
  Difference in ORR (95% CI): 25.0
[1]; [7]
  ORR: 50.0
  Response/Patient: 3/6
[1]; [8]
  ORR: 0.0
  Response/Patient: 0/1
[1]; monotherapy 160 BID Schedule 1, MYD88_L265P vs MYD88_WT
  Difference in ORR (95% CI): −66.7
[1]; [9]
  ORR: 66.7
  Response/Patient: 6/9
[1]; [10]
  ORR: 100.0
  Response/Patient: 1/1
[1]; monotherapy 160 BID Schedule 1, NOTCH1_Mut vs NOTCH1_WT
  Difference in ORR (95% CI): 44.4
[1]; [11]
  ORR: 55.6
  Response/Patient: 5/9
[1]; [12]
  ORR: 31.6
  Response/Patient: 12/38
[1]; [13]
  ORR: 60.0
  Response/Patient: 6/10
[1]; monotherapy 160 BID Schedule 1, Other (not MYD88_L265P/CD79B_Mut)
  ORR: 60.0
[1]; [14]
  ORR: 63.6
  Response/Patient: 7/11
[1]; [15]
  ORR: 36.0
  Response/Patients: 9/25
[1]; [16]
  ORR: 46.2
  Response/Patients: 6/13
[1]; monotherapy 160 BID Schedule 2, CD79B ITAM_Mut vs CD79B ITAM_WT
  Difference in ORR (95% CI): 17.6
[1]; [17]
  ORR: 28.6
  Response/Patients: 6/21
[1]; [18]
  ORR: 46.2
  Response/Patients: 6/13
[1]; monotherapy 160 BID Schedule 2, CD79B_Mut vs CD79B_WT
  Difference in ORR (95% CI): 17.6
[1]; [19]
  ORR: 28.6
  Response/Patients: 6/21
[1]; [20]
  ORR: 40.0
  Response/Patients: 4/10
[1]; monotherapy 160 BID Schedule 2, MYD88_L265P vs MYD88_WT
  Difference in ORR (95% CI): 6.7
[1]; [21]
  ORR: 50.0
  Response/Patients: 3/6
[1]; monotherapy 160 BID Schedule 2, MYD88_L265P/CD79B_Mut vs Other
  Difference in ORR (95% CI): 17.9
[1]; [22]
  ORR: 33.3
  Response/Patients: 8/24
[1]; [23]
  ORR: 100.0
  Response/Patients: 2/2
[1]; monotherapy 160 BID Schedule 2, NOTCH1_Mut vs NOTCH1_WT
  Difference in ORR (95% CI): 68.8
[1]; [24]
  ORR: 31.3
  Response/Patients: 10/32
[1]; [25]
  ORR: 29.3
  Response/Patients: 12/41
[1]; [26]
  ORR: 35.3
  Response/Patients: 12/34
[1]; [27]
  ORR: 32.1
  Response/Patients: 9/28
[1]; [28]
  ORR: 35.3
  Response/Patients: 12/34
[1]; [29]
  ORR: 42.1
  Response/Patients: 16/38
[1]; [30]
  ORR: 53.3
  Response/Patients: 8/15
[1]; monotherapy Total (N = 79), CD79B ITAM_Mut vs CD79B ITAM_WT
  Difference in ORR (95% CI): 18.9
[1]; [31]
  ORR: 34.5
  Response/Patients: 10/29
[1]; [32]
  ORR: 52.9
  Response/Patients: 9/17
[1]; monotherapy Total (N = 79), CD79B_Mut vs CD79B_WT
  Difference in ORR (95% CI): 19.6
[1]; [33]
  ORR: 33.3
  Response/Patients: 9/27
[1]; [34]
  ORR: 36.4
  Response/Patients: 4/11
[1]; monotherapy Total (N = 79), MYD88_L265P vs MYD88_WT
  Difference in ORR (95% CI): −6.1
[1]; [35]
  ORR: 50.0
  Response/Patients: 3/6
[1]; monotherapy Total (N = 79), MYD88_L265P/CD79B_Mut vs Other
  Difference in ORR (95% CI): 10.5
[1]; [36]
  ORR: 42.4
  Response/Patients: 14/33
[1]; [37]
  ORR: 100.0
  Response/Patients: 3/3
[1]; monotherapy Total (N = 79), NOTCH1_Mut vs NOTCH1_WT
  Difference in ORR (95% CI): 63.4
[1]; [38]
  ORR: 36.6
  Response/Patients: 15/41
[1]; [39]
  ORR: 30.4
  Response/Patients: 24/79
[1]; [40]
  ORR: 40.9
  Response/Patients: 18/44
[1]; [41]
  ORR: 39.5
  Response/Patients: 15/38
[1]; [42]
  ORR: 42.2
  Response/Patients: 19/45
[1]; first of the two monotherapies (Schedule 1)
  unadjusted ORR: 31.6%
[1]; second of the two monotherapies (Schedule 2)
  unadjusted ORR: 29.3%
[1]; two monotherapies, NOTCH1 mutant (n=3)
  ORR: 100%
[1]; two monotherapies, non-GCB DLBCL with CD79B mutations (n=17)
  ORR: 52.9%
[1]; two monotherapies, other population (without CD79B mutations)
  ORR: 33.3%
[1]; two monotherapies, patients without NOTCH1 mutation
  ORR: 36.6%
[2]; CD79B ITAM domain mutation non-GCB DLBCL models
  TGI (mean±SD): 96.00±28.83%
[2]; CD79B mutation non-GCB DLBCL models
  TGI (mean±SD): 87.5±33.14%
[2]; CD79B wildtype non-GCB DLBCL models
  TGI (mean±SD): 49.44±42.36%
